{"source": "patent US9757350B2", "about": "“Small molecule inhibitors of replication protein A that also act synergistically with cisplatin” (Indiana University Research and Technology Corp., priority 2010, dated 2017)", "key": {"[1]": {"biological_target": "T1, full-length heterotrimeric RPA (Homo sapiens, UniProt P27694)", "T1 construct": "Human full-length, un-tagged heterotrimeric RPA (RPA) was purified as previously describe; made in house", "T1 sequence (P27694 whole entry)": "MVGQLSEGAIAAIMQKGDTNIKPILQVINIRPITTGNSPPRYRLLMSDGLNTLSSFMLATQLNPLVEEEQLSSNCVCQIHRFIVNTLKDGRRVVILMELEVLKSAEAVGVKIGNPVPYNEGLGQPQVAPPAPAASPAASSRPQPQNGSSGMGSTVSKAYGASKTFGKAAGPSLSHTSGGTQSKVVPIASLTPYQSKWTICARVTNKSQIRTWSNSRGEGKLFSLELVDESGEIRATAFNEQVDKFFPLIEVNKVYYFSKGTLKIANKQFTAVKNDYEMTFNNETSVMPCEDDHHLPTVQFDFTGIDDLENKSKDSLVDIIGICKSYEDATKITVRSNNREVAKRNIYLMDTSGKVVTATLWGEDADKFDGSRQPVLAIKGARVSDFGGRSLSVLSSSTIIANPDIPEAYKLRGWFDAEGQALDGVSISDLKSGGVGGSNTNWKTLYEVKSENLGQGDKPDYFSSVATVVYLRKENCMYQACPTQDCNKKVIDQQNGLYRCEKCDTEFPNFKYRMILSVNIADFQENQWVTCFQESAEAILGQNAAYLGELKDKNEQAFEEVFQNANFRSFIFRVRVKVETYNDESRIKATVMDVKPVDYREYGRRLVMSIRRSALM", "T1 sequence (P15927 whole entry partner)": "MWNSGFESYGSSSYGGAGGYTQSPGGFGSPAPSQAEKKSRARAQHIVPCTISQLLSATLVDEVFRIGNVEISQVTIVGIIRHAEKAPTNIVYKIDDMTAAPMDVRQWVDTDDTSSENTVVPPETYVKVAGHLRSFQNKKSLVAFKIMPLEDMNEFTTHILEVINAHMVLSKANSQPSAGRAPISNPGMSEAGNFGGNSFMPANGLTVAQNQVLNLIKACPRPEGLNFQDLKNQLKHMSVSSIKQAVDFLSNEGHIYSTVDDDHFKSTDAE", "T1 sequence (P35244 whole entry partner)": "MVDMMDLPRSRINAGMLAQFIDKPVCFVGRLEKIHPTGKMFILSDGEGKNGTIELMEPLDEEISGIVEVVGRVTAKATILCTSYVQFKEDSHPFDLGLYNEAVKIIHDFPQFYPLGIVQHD", "assay": "Reversibility of full-length RPA inhibition: dialysis, then EMSA", "assay_type": "binding", "conditions": "overnight dialysis, then EMSA with 34-base DNA", "method": "Considering the differential inhibition observed between the anhydride and halo esters with respect to specificity, experiments were carried out to determine if the isoborneol halo-esters inhibited full-length RPA in an irreversible fashion. Full-length RPA was mixed with MCI13E or vehicle control and the reaction mixtures were then dialyzed overnight. Referring now to FIG. 5. Gel showing irreversible inactivation of full-length heterotrimeric RPA by MCI13E. Incubation of RPA with MCI13E, dialysis and recovery was performed as described for FIG. 3. DNA binding activity of the resulting protein was assessed by EMSA using a 5′-[^32P]-ss 34-base DNA as described in “Methods”. Lanes 1-4 pre-dialysis, lanes 5 and 6 post dialysis. […] In fact, the degree of inhibition was similar to that observed for the MCI13E treated RPA before dialysis (FIG. 5 lanes 3 and 4). […] This activity is consistent with MCI13E and F and their reaction with RPA serving as a pharmacodynamic marker of RPA inhibition or as a biomarker for RPA expression and activity.\nIn order to assess the reversibility of select SMIs, the indicated SMI was pre-incubated with RPA or the DBD-A/B construct for 30 minutes at room temperature. […] The resulting protein was recovered and concentration determined by Bradford analysis. […]"}, "[2]": {"tested_on": "NSCLC cell lines A549 and H460", "assay": "Apoptosis by Annexin V/PI staining, NSCLC cell lines", "assay_type": "cell-based", "conditions": "48 hours", "method": "Referring now to FIG. 11A. Gel showing effect of MCI13E on DNA-RPA binding. […] Cytotoxicity was analyzed via crystal violet analysis as described in “methods” 48 hours following MCI13E treatment. Data represent the average and standard deviation of four replicate experiments with each replicate containing triplicate determinations and the circles represent data from H460 cells and squares A549 cells. Referring now to FIG. 11C. Graph of MCI13E induced death via apoptosis in NSCLC cell lines. Cell were treated with the indicated concentrations of MCI13E for 48 hours and analyzed for the induction of apoptosis via Annexin V/PI staining Referring now to FIG. 11D. Graph of cell survival as a function of [MCI1EC]. Percent survival was calculated for each cell line using untreated cells as a control. […]\nFlow Cytometry—After determining the SMI cytotoxicity, H460, A549 and H1299 lung cancer cell lines were analyzed for apoptosis using the Annexin V-FITC/Propidium Iodide (PI) Vybrant® Apoptosis Assay kit (Invitrogen, Gaithersburg, Md.). […] Following treatment, both adherent and non-adherent cells were collected, processed via the manufacturer's protocol (Invitrogen) and analyzed on a FACScan flow cytometer (Becton Dickson, San Jose, Calif.). Data was analyzed using WinDMI software (The Scripps Research Institute, Can Diego, Calif.) and results are presented as a percentage of control (untreated cells)."}, "[3]": {"tested_on": "H1299 cells", "assay": "Apoptosis by Annexin V/PI staining, H1299", "assay_type": "cell-based", "conditions": "H1299, Annexin V and propidium iodine staining", "method": "Referring now to FIG. 13A. Cell Viability and Apoptosis of Ovarian and p53 null Lung Cancer Cell Lines. A) Ovarian cancer cell line A2780 and the p53 null lung cancer cell line, H1299, were treated with log dosing of MCI13E and viability analyzed via CCK-8 metabolic assay as described in Methods. Data is presented as cell survival which was determined as a percent of the untreated control cells and represents the average and standard deviation of triplicate experiments Referring now to FIG. 13B.\nFlow Cytometry—After determining the SMI cytotoxicity, H460, A549 and H1299 lung cancer cell lines were analyzed for apoptosis using the Annexin V-FITC/Propidium Iodide (PI) Vybrant® Apoptosis Assay kit (Invitrogen, Gaithersburg, Md.). Cells were plated in 6-well dishes (2×10^5 cells total), treated for 24 (H1299) or 48 (H460 and A549) hours with increasing concentrations of SMI. Following treatment, both adherent and non-adherent cells were collected, processed via the manufacturer's protocol (Invitrogen) and analyzed on a FACScan flow cytometer (Becton Dickson, San Jose, Calif.). Data was analyzed using WinDMI software (The Scripps Research Institute, Can Diego, Calif.) and results are presented as a percentage of control (untreated cells)."}, "[4]": {"tested_on": "A549 cells", "assay": "Cell cycle analysis by PI staining, A549", "assay_type": "cell-based", "conditions": "A549, increasing doses", "method": "(§1) Referring now to FIG. 12A and FIG. 12B. Cell Cycle Analysis of Lung Cancer Cell Lines Following Treatment with MCI13E. A549. Referring now to FIG. 12C, and FIG. 12D. H460 were treated as indicated and analyzed for the cell cycle distribution using PI staining and flow cytometry. Quantification of data following 6 hours and 12 hour treatment with 10 and 20 μM MCI13E was performed for both A549 (FIG. 12E) and H460 (FIG. 12F) Data presented represent the averages of three replicate experiments.\n(§2) Cell cycle analysis was also performed on the three lung cancer cell lines using PI staining to identify the potential arrest resulting from treatment with SMIs. Briefly, cells were plated in 6-well dishes (2×10^5 cells total) and treated for 6 or 12 hours with increasing concentration of inhibitor. Adherent and non-adherent cells were collected, washed twice with PBS containing 2% bovine serum albumin (BSA), resuspended in 70% cold EtOH and incubated overnight at −20° C. Cells were again collected and stained with PI (1 μg/mL) and RNaseA (25 μg/mL) for 30 min. at 37° C. followed by 1.5 hours at 4° C. in the dark. Flow cytometry was performed as above and data were analyzed on a histogram with events plotted against the FL2-A parameter. Cell cycle distribution was analyzed using the ModFit software and data presented represents three independent trials."}, "[5]": {"tested_on": "H460 cells", "assay": "Cell cycle analysis by PI staining, H460", "assay_type": "cell-based", "conditions": "H460, increasing doses", "method": "as §1, §2"}, "[6]": {"tested_on": "H1299 cells", "assay": "Cell cycle analysis by PI staining, H1299", "assay_type": "cell-based", "conditions": "6, 12 and 24 hours of treatment", "method": "as §2, with “Briefly, cells were plated in 6-well dishes (2×10^5 cells total) and treated for 6 or 12 hours with increasing concentration of inhibitor.” left out"}, "[7]": {"tested_on": "RPA", "assay": "Western blot of endogenous RPA34 levels", "assay_type": "cell-based", "conditions": "western blot for RPA34", "method": "Referring now to FIG. 18. Blot showing Endogenous Levels of RPA. Each cell line analyzed were plated (3×10^6) in 10 cm dishes and allowed to adhere overnight. Following a 5 ml PBS wash the cells were scraped into 100 μl of RIPA buffer. Cell extracts (40 μg) were loaded onto 10% SDS-PAGE gels, transferred to nitrocellulose membranes and probed for the presence of RPA34. Purified RPA was used as a positive control while GAPDH was probed for a loading control."}}}
{"smiles": "CC1(C)C2CCC1(C)C(OC(=O)CBr)C2", "note": "(racemic) [MCI13E, (+/−)-Isobornyl bromoacetate]", "values": [{"measurement": "Reversibility of full-length RPA inhibition", "setting": "[1]", "result": "inhibition was not reversed by dialysis"}, {"measurement": "Mode of cell death", "setting": "[2]", "result": "induces death via classical apoptosis"}, {"measurement": "Induction of apoptosis", "setting": "[3]", "result": "indicative of the induction of apoptosis"}, {"measurement": "Cell cycle distribution", "setting": "[4]", "result": "greater proportion of cells in the G1 phase"}, {"measurement": "Cell cycle distribution", "setting": "[5]", "result": "increase in the proportion of cells in S-phase"}, {"measurement": "Cell cycle distribution", "setting": "[6]", "result": "increased percentage of cells accumulated in S-phase"}, {"measurement": "Levels of endogenous RPA", "setting": "[7]", "result": "No change in the levels of endogenous RPA"}]}
